# Columns and labels:
# [1] = target: aryl hydrocarbon receptor (AhR) (Mus musculus (Mouse), UniProt P30561); assay: AhR ligand screening: AhRE-luciferase reporter in transfected Hepa1 cells; type: cell-based; conditions: for Fold @ 1 nM: fold change of luciferase expression at 1 nM test compound relative to vehicle (0.1% DMSO); for Fold @ 100 nM: fold change of luciferase expression at 100 nM test compound relative to vehicle (0.1% DMSO); for Fold @ 10 uM: fold change of luciferase expression at 10 uM test compound relative to vehicle (0.1% DMSO); for Fold relative to benchmark @ 100 nM: luciferase expression at 100 nM test compound relative to 100 nM benchmark compound 11-cl-BBQ
# aryl hydrocarbon receptor (AhR), sequence (P30561 10-805): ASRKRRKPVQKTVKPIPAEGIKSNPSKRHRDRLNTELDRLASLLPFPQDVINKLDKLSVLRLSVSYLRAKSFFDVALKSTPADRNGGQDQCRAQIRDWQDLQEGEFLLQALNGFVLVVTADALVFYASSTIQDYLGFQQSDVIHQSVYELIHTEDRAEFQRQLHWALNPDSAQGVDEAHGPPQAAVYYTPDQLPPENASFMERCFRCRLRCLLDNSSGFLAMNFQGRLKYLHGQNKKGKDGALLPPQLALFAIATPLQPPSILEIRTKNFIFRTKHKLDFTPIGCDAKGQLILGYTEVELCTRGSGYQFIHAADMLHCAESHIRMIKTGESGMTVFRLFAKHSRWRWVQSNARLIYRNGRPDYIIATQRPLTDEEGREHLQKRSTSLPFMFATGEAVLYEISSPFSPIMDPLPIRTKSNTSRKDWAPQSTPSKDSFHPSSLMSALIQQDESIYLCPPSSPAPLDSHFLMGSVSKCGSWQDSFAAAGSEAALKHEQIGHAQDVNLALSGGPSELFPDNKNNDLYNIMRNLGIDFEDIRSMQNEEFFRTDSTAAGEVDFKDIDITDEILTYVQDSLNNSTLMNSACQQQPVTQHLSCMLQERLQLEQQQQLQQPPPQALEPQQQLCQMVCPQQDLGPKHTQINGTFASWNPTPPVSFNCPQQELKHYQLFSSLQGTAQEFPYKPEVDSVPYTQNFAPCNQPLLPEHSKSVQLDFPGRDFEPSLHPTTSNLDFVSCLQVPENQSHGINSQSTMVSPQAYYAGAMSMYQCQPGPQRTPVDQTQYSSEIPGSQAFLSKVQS
# aryl hydrocarbon receptor (AhR), sequence (P53762 whole entry partner): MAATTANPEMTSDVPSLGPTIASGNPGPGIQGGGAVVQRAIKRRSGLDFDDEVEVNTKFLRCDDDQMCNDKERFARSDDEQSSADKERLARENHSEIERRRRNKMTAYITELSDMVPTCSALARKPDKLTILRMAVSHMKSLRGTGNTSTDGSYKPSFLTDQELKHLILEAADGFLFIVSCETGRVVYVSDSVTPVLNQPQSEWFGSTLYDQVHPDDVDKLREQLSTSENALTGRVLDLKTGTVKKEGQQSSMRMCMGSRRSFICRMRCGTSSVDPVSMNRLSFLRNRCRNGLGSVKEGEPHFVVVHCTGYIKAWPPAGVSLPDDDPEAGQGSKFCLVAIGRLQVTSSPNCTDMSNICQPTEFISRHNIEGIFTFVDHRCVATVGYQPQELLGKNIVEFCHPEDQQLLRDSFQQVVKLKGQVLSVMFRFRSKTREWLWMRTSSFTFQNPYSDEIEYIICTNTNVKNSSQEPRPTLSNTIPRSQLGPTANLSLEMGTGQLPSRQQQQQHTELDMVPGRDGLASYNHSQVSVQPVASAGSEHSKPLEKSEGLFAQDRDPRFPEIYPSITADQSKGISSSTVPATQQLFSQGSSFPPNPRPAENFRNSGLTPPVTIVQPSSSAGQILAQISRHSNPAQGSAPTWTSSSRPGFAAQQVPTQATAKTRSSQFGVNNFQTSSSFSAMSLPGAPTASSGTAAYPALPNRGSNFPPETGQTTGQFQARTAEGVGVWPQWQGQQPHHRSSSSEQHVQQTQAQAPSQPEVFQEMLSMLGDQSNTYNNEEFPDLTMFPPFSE
# Procedure, shortened: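 Values are fold luciferase induction relative to vehicle (0.1% DMSO), read by luminometry of lysates from Hepa1 cells carrying an AhRE-driven luciferase reporter. Cells were seeded at 1×10^4 per well, grown overnight and treated with compound before lysis.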
# [2] = Liver microsomal stability, rat; conditions: for Rem @ RLM × 30 min: rat liver microsomes, 1 μM compound, 0.5 mg/ml protein; for half-life at 1 μM / microsomal CLint at 1 μM: rat, liver microsomes, pH 7.4
# Description: (§1) The assessment of metabolic stability of testing compounds was performed using human, mouse, rat, dog and monkey liver microsomes (20 mg protein/ml). Each reaction mixture contained 42.5 μL of 0.1 M potassium phosphate buffer pH 7.4, containing respective LM protein (final concentration 0.5 mg/ml). 2.5 μL of the compound stock solution was added in it (1 μM final concentration). The reaction was initiated by the addition of 5 μL NADPH solution (final Concentration 1 mM). At different time points (0, 5, 15, and 30 minutes), samples were quenched with 200 μL of cold acetonitrile containing ISTD Propranolol. Samples were centrifuged at 3500 rpm for 20 mM at 4° C. Supernatant was subjected to LC-MS/MS analysis for quantification. Verapamil was used as a positive control.
# [3] = Liver microsomal stability, human; conditions: for Rem @ HLM × 30 min: human liver microsomes, 1 μM compound, 0.5 mg/ml protein; for half-life at 1 μM / microsomal CLint at 1 μM: human, liver microsomes, pH 7.4
# [4] = Liver microsomal stability, mouse; conditions: for Rem @ MLM × 30 min: mouse liver microsomes, 1 μM compound, 0.5 mg/ml protein; for half-life at 1 μM / microsomal CLint at 1 μM: mouse, liver microsomes, pH 7.4
# Description: as §1
SMILES,Fold @ 1 nM [1],Fold @ 100 nM [1],Fold @ 10 uM [1],Fold relative to benchmark @ 100 nM [1],also measured
O=C(c1ccccc1)c1c[nH]c2ccc(Cl)cc12 [Compound 892],1 fold,1 fold,15 fold,0.02 fold,Rem @ RLM × 30 min [2]: 64.9%; half-life at 1 μM [2]: 57 min; microsomal CLint at 1 μM [2]: 24.3 µL/min/mg; Rem @ HLM × 30 min [3]: 24.7%; half-life at 1 μM [3]: 15.3 min; microsomal CLint at 1 μM [3]: 90.7 µL/min/mg; Rem @ MLM × 30 min [4]: 36.7%; half-life at 1 μM [4]: 21 min; microsomal CLint at 1 μM [4]: 66.1 µL/min/mg
COc1ccc(C(=O)c2c[nH]c3ccc(Cl)cc23)cc1 [Compound 894],1 fold,1 fold,7 fold,0.02 fold,Rem @ RLM × 30 min [2]: 58.1%; half-life at 1 μM [2]: 43 min; microsomal CLint at 1 μM [2]: 32.3 µL/min/mg; Rem @ HLM × 30 min [3]: 57.9%; half-life at 1 μM [3]: 45.3 min; microsomal CLint at 1 μM [3]: 30.6 µL/min/mg; Rem @ MLM × 30 min [4]: 54.5%; half-life at 1 μM [4]: 37.6 min; microsomal CLint at 1 μM [4]: 36.9 µL/min/mg
O=C(c1ccc(F)c(F)c1)n1c(-c2cccc(-c3ccccc3)c2)nc2ccc(Cl)cc21 [Compound 772],1 fold,1 fold,1 fold,0.04 fold,
O=C(c1ccc(F)c(F)c1)n1c(-c2cc3ccccc3o2)nc2ccc(Cl)cc21 [Compound 858],1 fold,10 fold,73 fold,0.34 fold,
COc1ccc(C(=O)n2c(-c3cccc4ccccc34)nc3cc(Cl)ccc32)cc1OC [Compound 682],1 fold,18 fold,32 fold,0.69 fold,
COc1ccccc1S(=O)(=O)n1c(-c2cccc3ccccc23)nc2ccc(C(=O)N3CCCCC3)cc21 [Compound 1391],1 fold,1 fold,1 fold,0.03 fold,
O=C(c1ccc2c(c1)nc(-c1cccc3ccccc13)n2S(=O)(=O)c1cccc(F)c1)N1CCOCC1 [Compound 1356],1 fold,1 fold,1 fold,0.03 fold,
COc1ccc2c(c1)nc(-c1cccc3ccccc13)n2C(=O)c1ccccc1 [Compound 639],1 fold,1 fold,5 fold,0.11 fold,
O=C(c1c[nH]c2ccc(Cl)cc12)C1CCCCC1 [Compound 895],1 fold,1 fold,10 fold,0.02 fold,
O=C(c1ccc(F)c(F)c1)n1c(-c2cccc3c2CCCC3)nc2cc(Cl)ccc21 [Compound 779],1 fold,1 fold,5 fold,0.04 fold,
O=C(c1ccc(F)c(F)c1)n1c(-c2cccc3ccccc23)nc2cc(Cl)c(Cl)cc21 [Compound 692],3 fold,24 fold,85 fold,0.92 fold,
O=C(c1ccccc1)n1c(-c2cccc(C(F)(F)F)c2)nc2cc(Cl)ccc21 [Compound 763],1 fold,2 fold,22 fold,0.08 fold,
N#Cc1ccc(S(=O)(=O)n2c(-c3cccc4ccccc34)nc3ccc(C(=O)N4CCCCC4)cc32)cc1 [Compound 1337],1 fold,1 fold,8 fold,0.03 fold,
Cc1cccc(-c2nc3cc(Cl)ccc3n2C(=O)c2ccc(F)c(F)c2)c1Cl [Compound 791],1 fold,1 fold,26 fold,0.04 fold,
COc1ccc(C(=O)n2c(-c3cc4ccccc4s3)nc3ccc(Cl)cc32)cc1 [Compound 591],2 fold,2 fold,38 fold,0.13 fold,
O=C(c1ccc(F)c(F)c1)n1c(-c2ccc(Cl)c3ccccc23)nc2ccc(Cl)cc21 [Compound 870],1 fold,9 fold,74 fold,0.31 fold,
Clc1ccc2nc(-c3cccc4ccccc34)n(Cc3ccncc3)c2c1 [Compound 877],1 fold,3 fold,42 fold,0.06 fold,

SMILES,Fold @ 1 nM [1],Fold @ 100 nM [1],Fold @ 10 uM [1],Fold relative to benchmark @ 100 nM [1],also measured
COC(=O)c1ccc2c(c1)nc(-c1cccc3ccccc13)n2Cc1ccc(Cl)cc1 [Compound 1406],1 fold,1 fold,4 fold,0.03 fold,
CN(C)c1ccc(C(=O)n2c(-c3cccc4ccccc34)nc3cc(Cl)ccc32)cc1 [Compound 685],1 fold,13 fold,28 fold,0.5 fold,
O=C(c1ccc(F)c(F)c1)n1c(-c2cccc(C(F)(F)F)c2)nc2cc(Cl)ccc21 [Compound 788],1 fold,2 fold,19 fold,0.08 fold,
Clc1ccc2nc(-c3cccc4ccccc34)n(Cc3ccnc4ccccc34)c2c1 [Compound 868],1 fold,2 fold,28 fold,0.07 fold,
O=S(=O)(C1CC1)n1c(-c2cccc3ccccc23)nc2ccc(Cl)cc21 [Compound 784],1 fold,2 fold,34 fold,0.07 fold,
O=C(c1ccc(F)c(F)c1)n1c(-c2c3ccccc3cc3ccccc23)nc2ccc(Cl)cc21 [Compound 642],1 fold,1 fold,27 fold,0.11 fold,
O=C(c1ccccc1)n1c(-c2ccc(F)c(Cl)c2)nc2cc(Cl)ccc21 [Compound 582],1 fold,1 fold,14 fold,0.07 fold,
O=C(c1ccc(F)c(F)c1)n1c(-c2ccccc2-c2ccccc2)nc2cc(Cl)ccc21 [Compound 766],1 fold,2 fold,31 fold,0.08 fold,
O=C(c1ccc2c(c1)nc(-c1cccc3ccccc13)n2S(=O)(=O)c1cccc(F)c1)N1CCCCC1 [Compound 1368],1 fold,2 fold,2 fold,0.07 fold,
O=C(c1ccc2nc(-c3cccc4ccccc34)n(Cc3cccc4ccccc34)c2c1)N1CCOCC1 [Compound 1409],1 fold,1 fold,4 fold,0.03 fold,
COc1ccc(Cn2c(-c3cccc4ccccc34)nc3ccc(Cl)cc32)cc1 [Compound 853],1 fold,1 fold,11 fold,0.03 fold,
O=C(c1ccc2c(c1)nc(-c1cccc3ccccc13)n2Cc1ccc(F)c(F)c1)N1CCOCC1 [Compound 1329],1 fold,1 fold,1 fold,0.03 fold,
O=C(c1ccc2c(c1)OCCO2)n1c(-c2cccc3ccccc23)nc2cc(Cl)ccc21 [Compound 850],1 fold,22 fold,33 fold,0.88 fold,
O=C(c1ccc(SC(F)(F)F)cc1)n1c(-c2cccc3ccccc23)nc2ccc(Cl)cc21 [Compound 687],1 fold,28 fold,32 fold,1.08 fold,
O=C(c1ccc(F)c(F)c1)n1c(-c2ccc(F)c3ccccc23)nc2cc(Cl)ccc21 [Compound 792],1 fold,2 fold,19 fold,0.08 fold,
O=C(c1ccccc1)n1c(-c2cccc(C(F)(F)F)c2)nc2ccc(Cl)cc21 [Compound 789],1 fold,3 fold,8 fold,0.12 fold,
COC(=O)c1ccc2c(c1)nc(-c1cccc3ccccc13)n2Cc1ccc(F)c(F)c1 [Compound 1338],1 fold,1 fold,2 fold,0.03 fold,

# — patent US12473262B2, “Aryl hydrocarbon receptor activators” (Oregon State University, priority 2019, dated 2025)
